One data set can be described thus: in vivo. The following applies: for Approx. LD50 /ED50: chemotherapeutic index, mouse oral, N. dubius; for LD50: mouse, in vivo, po; for Dead/Total: mice. The source says:
Data on the acute oral toxicity to mice of various single oral doses of the above compounds and several analogs were obtained by conventional procedures, (Table IX hereinafter).

In the next data set the test system is Nematospiroides dubius. As to the kind of experiment: Anthelmintic efficacy against N. dubius in mice, single oral dose. The conditions noted are these: for inhibition in vivo at 1.25 mg/kg: single oral dose 1.25 mg./Kg.; for inhibition in vivo at 1.25 mg/kg / inhibition in vivo at 2 mg/kg / inhibition in vivo at 7.5 mg/kg / Percent Nematospiroides Activity / inhibition in vivo at 5 mg/kg / inhibition in vivo at 10 mg/kg / inhibition in vivo at 20 mg/kg / inhibition in vivo at 40 mg/kg: molar-adjusted; for inhibition in vivo at 2 mg/kg: single oral dose 2.0 mg./Kg.; for inhibition in vivo at 7.5 mg/kg: single oral dose 7.5 mg./Kg.; for inhibition in vivo at 20 mg/kg: single oral dose 20 mg./Kg.; for inhibition in vivo at 40 mg/kg: single oral dose 40 mg./Kg. Type of data set: in vivo, Nematospiroides dubius (in albino female mice). How it is done:
Albino female mice are each inoculated with about 20 infectious larvae of Nematospiroides dubius. This nematode is a representative of the economical important trichostrongylis worms of ruminants and other hosts, and of nematodes in general. Twenty-two days after inoculation, groups of four randomly selected mice containing adult N. dubius are given single oral doses of test compounds dissolved or suspended in 0.4 ml. of water per 20 gram mouse. At 26 or 27 days after inoculation, treated mice and in each test four randomly selected groups of untreated mice are necropsied. The number of worms in the small intestine of each mouse are determined by microscopic examination. Average worm numbers for each treated group and for the untreated controls are computed and the percent efficacy determined by the customary formula:
(Average Worms in Control - Average Worms in Treated)/(Average Worms in Control) X 100.

[1] abbreviates: Approx. LD50, mouse oral, Table IX.
Where [2] appears, read: LD50, mice, adjusted to molar equivalents of tetramisole free base.
The mark [3] stands for this setting: Heligmosomoides polygyrus, po, as Base, single oral dose, mice, > indicates inactive at dose shown, read-out: Approx. ED50.
The mark [4] stands for this setting: Heligmosomoides polygyrus, po, mouse oral, Table IX, read-out: Approx. ED50 vs. N. dubius.
Setting [5] is: Heligmosomoides polygyrus, po, read-out: Percent Nematospiroides Activity.
Where [6] appears, read: Heligmosomoides polygyrus, po, single oral dose 5.0 mg./Kg., read-out: Percent Nematospiroides Activity.
Setting [7] is: Heligmosomoides polygyrus, po, single oral dose 10 mg./Kg., read-out: Percent Nematospiroides Activity.

These results are taken from patent publication US3989835A, “Method of using 6-substituted amino phenyl-2,3,5,6-tetra-hydro[2,1-b]thiazoles for controlling gastrointestinal nematodes” (American Cyanamid Company, priority 1974, dated 1976).

Counter-ions that a name gives are not always drawn. Like-named read-outs stand apart in the source and are kept apart here.

Broadly, the LD50 is the dose expected to kill half of the subjects tested. As usually defined, the ED50 is the midpoint of the dose-response relation. Turning to `CC(C)C(=O)Nc1cccc(C2CN3CCSC3=N2)c1` (stereo not shown) [m-NH--CO--CH(CH3)2 l], the “Approx. LD50 /ED50” value in the data set “in vivo” (Table IX) came to 50. Further, the 50% lethal dose (LD50) is 50 mg/kg in the data set “in vivo” (setting [1]) and 60 to 75 mg/kg in the data set “in vivo” (setting [2]). Also, the Dead/Total in “in vivo” (single oral dose 50 Mg./Kg.) is 2/8; in the data set “in vivo” (single oral dose 100 Mg./Kg.) it was 8/8. Also, the ED50 in the data set on Nematospiroides dubius (setting [3]) and with Nematospiroides dubius (setting [4]) was 1 mg/kg throughout. Moreover, in the data set with Nematospiroides dubius (Heligmosomoides polygyrus, po, single oral dose 0.625 mg./Kg., adjusted to molar equivalents of tetramisole free base, read-out: Percent Nematospiroides Activity), the inhibition in vivo at 0.625 mg/kg came to 30%. Also, the inhibition in vivo at 1.25 mg/kg in the data set with Nematospiroides dubius (setting [5]) came out at 77%. Further, the inhibition in vivo at 2 mg/kg in the data set on Nematospiroides dubius (setting [5]) came out at 96%. Moreover, the inhibition in vivo at 7.5 mg/kg with Nematospiroides dubius (setting [5]) was determined as 97%. The “Percent Nematospiroides Activity” value with Nematospiroides dubius (single oral dose 5.0 mg./Kg.) and in the data set with Nematospiroides dubius (single oral dose 10 mg./Kg.) was 100% in each case.

For the compound `CC(C)Nc1cccc(C2CN3CCSC3=N2)c1` (stereo not drawn) [m-NH-CH(CH3)2 dl, 6-(m-isopropylaminophenyl)-2,3,5,6-tetrahydroimidazo[2,1-b]thiazole], the “Approx. LD50 /ED50” value in “in vivo” (Table IX) stood at 8. Moreover, the median lethal dose (LD50) in the data set “in vivo” (setting [1]) was approximately 40 mg/kg; in “in vivo” (setting [2]) it was approximately 50 mg/kg. Besides, the Dead/Total in the data set “in vivo” (single oral dose 40 Mg./Kg.) was 2/6; in “in vivo” (single oral dose 60 Mg./Kg.), 3/6; in “in vivo” (single oral dose 80 Mg./Kg.), 4/6; in “in vivo” (single oral dose 100 Mg./Kg.) it was 5/6. Moreover, the 50% effective dose (ED50) with Nematospiroides dubius (setting [3]) and in the data set with Nematospiroides dubius (setting [4]) was 5 mg/kg throughout. Further, the inhibition in vivo at 5 mg/kg with Nematospiroides dubius (setting [6]) stood at 55%. Also, the inhibition in vivo at 7.5 mg/kg in the data set on Nematospiroides dubius (setting [5]) stood at 89%. The inhibition in vivo at 10 mg/kg with Nematospiroides dubius (setting [7]) is 100%. The inhibition in vivo at 20 mg/kg in the data set on Nematospiroides dubius (setting [5]) came to 100%. Moreover, in the data set on Nematospiroides dubius (setting [5]), the inhibition in vivo at 40 mg/kg was 100%.

For the compound `COC(=O)Nc1cccc(C2CN3CCSC3=N2)c1` (stereo not drawn) [m-NH-CO--OCH3 l, l-m-(2,3,5,6-tetrahydroimidazo[2,1-b]thiazol-6-yl)carbanilicacid methyl ester, hydrochloride], in the data set “in vivo” (Table IX), the “Approx. LD50 /ED50” value is recorded as 20. Further, the LD50 in the data set “in vivo” (setting [1]) is approximately 150 mg/kg; in the data set “in vivo” (setting [2]) it was approximately 125 mg/kg. In addition, the Dead/Total in “in vivo” (single oral dose 50 Mg./Kg.) is 0/5; in the data set “in vivo” (single oral dose 100 Mg./Kg.), 0/5; in the data set “in vivo” (single oral dose 150 Mg./Kg.), 1/5; in “in vivo” (single oral dose 200 Mg./Kg.), 5/5. In addition, the 50% effective dose (ED50) in the data set with Nematospiroides dubius (setting [3]) and with Nematospiroides dubius (setting [4]) was 7.5 mg/kg each time. In the data set on Nematospiroides dubius (setting [6]), the inhibition in vivo at 5 mg/kg came to 28%. For the same compound, the inhibition in vivo at 10 mg/kg with Nematospiroides dubius (setting [7]) is 61%. Also, the inhibition in vivo at 20 mg/kg in the data set with Nematospiroides dubius (setting [5]) was 100%. The inhibition in vivo at 40 mg/kg in the data set with Nematospiroides dubius (setting [5]) was 100%.

Turning to `CC(C)(C)C(=O)Nc1cccc(C2CN3CCSC3=N2)c1` (stereo not shown) [m-NH-CO-C(CH3)2 l], the “Approx. LD50 /ED50” value in “in vivo” (Table IX) is reported as 100. Besides, the median lethal dose (LD50) was 100 mg/kg in “in vivo” (setting [1]) and approximately 100 mg/kg in “in vivo” (setting [2]). Also, the Dead/Total in the data set “in vivo” (single oral dose 50 Mg./Kg.) is reported as 0/6; in the data set “in vivo” (single oral dose 100 Mg./Kg.) it was 2/6; in “in vivo” (single oral dose 200 Mg./Kg.), 6/6. Also, the ED50 in the data set on Nematospiroides dubius (setting [3]) and with Nematospiroides dubius (setting [4]) was 1 mg/kg each time. The inhibition in vivo at 1.25 mg/kg with Nematospiroides dubius (setting [5]) turned out to be 60%. In addition, the inhibition in vivo at 2 mg/kg with Nematospiroides dubius (setting [5]) amounted to 69%. Besides, in the data set with Nematospiroides dubius (setting [6]), the inhibition in vivo at 5 mg/kg stood at 90%. Further, the inhibition in vivo at 10 mg/kg in the data set on Nematospiroides dubius (setting [7]) came out at 100%.
